# Laboratory results taken from patent US5559115A, “Oncogene function-inhibitory agent, method for inhibiting oncogene function, and treatment of cancer” (Terumo Kabushiki Kaisha, priority 1993, dated 1996).
# Counter-ions that a name gives are not always drawn.
# Tests used:
# K-ras^ts-NRK cells = test: Action mechanism: morphology / M phase observation in K-ras^ts-NRK cells; assay type: cell-based, rat; conditions: 33° C., 0.1 μg/ml, after one day
# Experimental: Before the addition of the III-121C, the cells grew atop the other and had projections or processes on their surface (FIG. 9(a)).
# The procedure as described above was repeated by replacing the III-121C with 0.1 μg/ml of vinblastine, 0.1 μg/ml of vincristine and 0.1 μg/ml of colchicine, which are known as microtubule formation inhibitors.
# Ras protein = conditions: cited from earlier work
# [1] = Acute toxicity (LD50) on mouse upon intravenous injection; assay type: in vivo; conditions: in vivo, intravenous injection
# Experimental: Toxicity (LD50) on mouse of III-121C upon intravenous injection was measured.
# K-ras-NRK cells = test: Action mechanism: flow-cytometric DNA content analysis of K-ras-NRK cells; assay type: cell-based, rat; conditions: 24 hours; III-121C 0.3 and 1 μg/ml, vinblastine 0.1 μg/ml (FIG. 11)
# Experimental: FIGS. 11(a) to (d) are graphs showing the results of flow-cytometric analysis wherein the number of cells is depicted in relation to their DNA content, upon addition of no reagent (FIG. 11(a)), 0.3 μg/ml of III-121C (FIG. 11(b)), 1 μg/ml of III-121C (FIG. 11(c)), and 0.1 μg/ml of vinblastine (FIG. 11(d)) to the K-ras NRK cell culture.
# To the cells of K-ras-NRK in their propagation was added either one of III-121C and vinblastine. No reagent was added to the control cells. After 24 hours from the addition, the cells were fractionated with a cell sorter to examine the DNA quantity in relation to the number of the cells.
SMILES,number of circular or elongated cells in M phase (K-ras^ts-NRK cells),LD50 [1],other results
"COc1cc2c(c(OC)c1OC)-c1ccc(OC)c(=O)cc1[C@@H](NC(C)=O)CC2 [colchicine, reference compound]",a significant increase in the number of circular or elongated cells that are in their M phase of the cell cycle,–,–
CC[C@H](C)C(=O)O[C@H]1CCC=C2C=C[C@H](C)[C@H](CC[C@@H]3C[C@@H](O)CC(=O)O3)[C@H]21 [compactin],–,–,inhibition of the action of the ras oncogene product (Ras protein) (Ras protein): capable of inhibiting the action of the ras oncogene product
"CC[C@]1(O)C[C@H]2CN(CCc3c([nH]c4ccccc34)[C@@](C(=O)OC)(c3cc4c(cc3OC)N(C=O)[C@H]3[C@@](O)(C(=O)OC)[C@H](OC(C)=O)[C@]5(CC)C=CCN6CC[C@]43[C@@H]65)C2)C1 [vincristine sulfate, reference compound]",–,2.5 mg/kg,–
"CC[C@]1(O)C[C@@H]2CN(CCc3c([nH]c4ccccc34)[C@@](C(=O)OC)(c3cc4c(cc3OC)N(C)[C@H]3[C@@](O)(C(=O)OC)[C@H](OC(C)=O)[C@]5(CC)C=CCN6CC[C@]43[C@@H]65)C2)C1 [vinblastine sulfate, reference compound]",–,15.2 mg/kg,–
Nc1nc2c(ncn2[C@@H]2O[C@H](CO)[C@@H](O)[C@H]2O)c(=O)o1 [oxanosin],–,–,inhibition of the action of the ras oncogene product (Ras protein) (Ras protein): capable of inhibiting the action of the ras oncogene product
"CC[C@]1(O)C[C@@H]2CN(CCc3c([nH]c4ccccc34)[C@@](C(=O)OC)(c3cc4c(cc3OC)N(C)[C@H]3[C@@](O)(C(N)=O)[C@H](O)[C@]5(CC)C=CCN6CC[C@]43[C@@H]65)C2)C1 [vindecine sulfate, reference compound]",–,9.1 mg/kg,–
"CC[C@]1(O)C[C@H]2CN(CCc3c([nH]c4ccccc34)[C@@](C(=O)OC)(c3cc4c(cc3OC)N(C=O)[C@H]3[C@@](O)(C(=O)OC)[C@H](OC(C)=O)[C@]5(CC)C=CCN6CC[C@]43[C@@H]65)C2)C1 [vincristine, reference compound]",a significant increase in the number of circular or elongated cells that are in their M phase of the cell cycle,–,–
"CC[C@]1(O)C[C@@H]2CN(CCc3c([nH]c4ccccc34)[C@@](C(=O)OC)(c3cc4c(cc3OC)N(C)[C@H]3[C@@](O)(C(=O)OC)[C@H](OC(C)=O)[C@]5(CC)C=CCN6CC[C@]43[C@@H]65)C2)C1 [vinblastine, reference compound]",a significant increase in the number of circular or elongated cells that are in their M phase of the cell cycle,–,cell cycle / cell division inhibition (K-ras-NRK cells): inhibition of G2 /M phase in the cell cycle; distribution of DNA quantity in cells (K-ras-NRK cells): an increase in the number of cells having a relatively large quantity of DNA was observed
